Data from patent publication US12168020B2, “Method for ameliorating, preventing or treating muscular atrophy or sarcopenia by administering composition comprising 2′-fucosyllactose as active ingredient” (ADVANCED PROTEIN TECHNOLOGIES CORP., priority 2021, dated 2024).

Experiments:
PGC-1α mRNA = experiment: qPCR of mitochondrial biosynthesis gene PGC-1α; assay type: cell-based, mouse; details: C2C12, 2′-FL at a high concentration, vs control group
Excerpt: (§1) Mitochondria are organelles that have a main function of generating ATP, which is a form of intracellular energy, and perform various intracellular functions such as metabolism, signal transduction, apoptosis, and differentiation. Metabolic adaptation in skeletal muscle is achieved by the regulation of various genes, and PGC-1α (peroxisome proliferator-activated receptor-γ coactivator-1α) transcriptional cofactor is known to perform the most important role therefor. Accordingly, the mRNA expression changes of PGC-1α and the downstream gene thereof, NRF2, were determined upon treatment with 2′-FL.
(§2) For this purpose, CDNA was synthesized from RNA extracted from C2C12 cells using ReverTra Ace qPCR RT Kit (TOYOBO). In order to increase the efficiency of the reaction, the RNA was pre-heated at 65° C. for 5 minutes and then immediately stored on ice. Then, a total of 8 μl of reagent was prepared from 2 μl of 4×DN master mix containing a gDNA remover, 0.5 μg of mRNA, and nuclease-free water, and then was amplified at 37° C. for 5 minutes.
(§3) The reacted reagent was added with a 5×RT master mix, and amplified at 37° C. for 15 minutes, at 50° C. for 5 minutes, and at 98° C. for 5 minutes to synthesize cDNA. Then, the synthesized cDNA was subjected to qPCR using Thunderbird TMSYBR qPCR mix reagent (TOYOBO). The gene expression level was analyzed with the iQ5 Cycler System (Bio-Rad). […]

[1] = tested on: differentiated C2C12 treated with dexamethasone; experiment: Protection against dexamethasone-induced growth inhibition (trypan blue cell count); assay type: cell-based, mouse; details: 2′-FL high concentration (200 μM) 1 hour before dexamethasone 400 μM for 24 hours, vs dexamethasone group (Veh)
Description: Dexamethasone, a synthetic glucocorticoid, is known to decrease the rate of protein synthesis and increase the rate of protein degradation in muscles in vivo or in cultured cells. Accordingly, 1 hour after treatment of C2C12, which had been differentiated, with 2′-FL, C2C12 was treated with dexamethasone at a concentration of 400 μM for 24 hours to determine the muscular atrophy prevention effect of 2′-FL in a cell model. In order to evaluate the prophylactic effect of growth inhibition caused by treatment with dexamethasone, C2C12 was treated with 2′-FL and dexamethasone in the same manner as above, the cells were removed with trypsin, and the number of the cells was counted using trypan blue staining.

MuRF1 gene = experiment: qPCR of muscular atrophy gene MuRF1 after dexamethasone; assay type: cell-based, mouse; details: 2′-FL 100 or 200 μM, dexamethasone 400 μM 24 hours, vs dexamethasone group (Veh)
C57BL/6 mice [2] = experiment: Dexamethasone-induced muscular atrophy mouse model: body weight and plasma liver function test; assay type: in vivo; details: dexamethasone 10 mg/kg i.p., vs Veh
Description: (§4) In order to determine whether or not 2′-FL has a prophylactic effect against muscular atrophy in an animal model, 2′-FL was orally administered at a concentration of 200 or 400 mg/kg to 7-week-old male C57BL/6 mice for 7 days, followed by intraperitoneal injection of dexamethasone known as a drug inducing muscular atrophy at a concentration of 10 mg/kg, and at the same time, oral administration of 2′-FL for 2 weeks. At this time, the experiment was conducted on mouse experimental groups, namely, a Nor group that received intraperitoneal injection of saline and distilled water, a that received intraperitoneal injection of Veh group dexamethasone and was orally administered distilled water, and a 2FLL group and a 2FLH group that received intraperitoneal injection of dexamethasone and was orally administered 2′-FL at 200 mg/kg and 400 mg/kg, respectively.

[3] = tested on: C57BL/6 mice, muscle tissue; experiment: Dexamethasone-induced muscular atrophy mouse model: H&E muscle histology and muscle tissue weight; assay type: in vivo; details: 2FLH (2′-FL 400 mg/kg oral), dexamethasone 10 mg/kg i.p., vs Veh
Description: as §4, with “respectively. The mouse muscle tissue was stained using the H&E method and then histological morphology was observed.” for “respectively.”

[4] = tested on: differentiated C2C12 treated with dexamethasone, mitochondria; experiment: Protection against dexamethasone-induced mitochondrial function inhibition; assay type: cell-based, mouse; details: 2′-FL 100 or 200 μM, dexamethasone 400 μM 24 hours, vs dexamethasone group
Description: Dexamethasone, a synthetic glucocorticoid, is known to decrease the rate of protein synthesis and increase the rate of protein degradation in muscles in vivo or in cultured cells. Accordingly, 1 hour after treatment of C2C12, which had been differentiated, with 2′-FL, C2C12 was treated with dexamethasone at a concentration of 400 μM for 24 hours to determine the muscular atrophy prevention effect of 2′-FL in a cell model. After treatment with dexamethasone, mtDNA expression and mitochondrial density were measured. […] In FIG. 6, 2FLL represents a group treated with 2′-FL at 100 μM, and 2FLH represent a group treated with 2′-FL at 200 μM.

atrogin-1 gene = experiment: qPCR of muscular atrophy gene atrogin-1 after dexamethasone; assay type: cell-based, mouse; details: 2′-FL 100 or 200 μM, dexamethasone 400 μM 24 hours, vs dexamethasone group (Veh)
C57BL/6 mice [5] = experiment: Dexamethasone-induced muscular atrophy mouse model: grip strength test; assay type: in vivo; details: 2′-FL 200 or 400 mg/kg oral, dexamethasone 10 mg/kg i.p., day before end of experiment, vs Veh
Description: as §4, with “respectively. All experimental animals were subjected to a grip strength test using a grip strength meter (Jeongdo Bio & Plant Co., Ltd.) the day before the end of the experiment.” for “respectively.”

C2C12 myotubes, MHC = experiment: MHC expression analysis by immunocytochemical staining (myocyte differentiation); assay type: cell-based, mouse; details: C2C12, 2′-FL 100 and 200 μM, 24 hours, vs control group
Description: In order to differentiate mouse myoblasts into myotubes, the mouse myoblasts were seeded at a concentration of 4×10^5 cells/well in each well of a 6-well plate, cultured for 24 hours until confluence reached 100% and then 2% horse serum was added thereto. Then, the mouse myoblasts were differentiated for 6 days while exchanging the DMEM containing 2% horse serum with fresh DMEM every 2 days. Immunocytochemical staining was performed to determine the effect of treatment with 2′-FL on myocyte differentiation. Specifically, C2C12 was treated with 2′-FL at different concentrations (100 and 200 μM) for 24 hours, and then fixed with a 4% paraformaldehyde solution for 10 minutes. The fixed cells were washed with PBS containing 0.1% Triton X-100 and then reacted in 5% BSA solution for 1 hour. The cells were washed 3 times with 1×PBS again and then were allowed to react with an MHC antibody (Cell signaling) at room temperature overnight. After the reaction was completed, the cells were washed 3 times with PBS and reacted with Alexa Fluor 488 goat anti-rabbit IgG at room temperature for 1 hour, and then nuclei thereof were stained with a horchest solution and observed under a fluorescence microscope. At this time, the AMPK agonist A-769662 (1 μM) was used as a positive control.

atrogin-1 protein = experiment: Dexamethasone-induced muscular atrophy mouse model: atrogin-1 immunoblotting of muscle tissue; assay type: in vivo; details: 2′-FL at a high concentration (400 mg/kg oral), dexamethasone 10 mg/kg i.p., vs Veh
Description: In order to determine whether or not 2′-FL has a prophylactic effect against muscular atrophy in an animal model, 2′-FL was orally administered at a concentration of 200 or 400 mg/kg to 7-week-old male C57BL/6 mice for 7 days, followed by intraperitoneal injection of dexamethasone known as a drug inducing muscular atrophy at a concentration of 10 mg/kg, and at the same time, oral administration of 2′-FL for 2 weeks. At this time, the experiment was conducted on mouse experimental groups, namely, a Nor group that received intraperitoneal injection of saline and distilled water, a that received intraperitoneal injection of Veh group dexamethasone and was orally administered distilled water, and a 2FLL group and a 2FLH group that received intraperitoneal injection of dexamethasone and was orally administered 2′-FL at 200 mg/kg and 400 mg/kg, respectively. Proteins were extracted by adding a Halt™ protease inhibitor to lysis buffer (10 mM Tris-HCl, pH 7.5, 1% NP-40, 0.1% sodium deoxycholate, 0.1% SDS, 150 mM NaCl, and 1 mM EDTA) in order to confirm protein expression using mouse muscle tissue and then immunoblotting was performed. As primary antibodies, anti-α-tubulin (1:1000) and anti-atrogin-1 (1:1000) were used. The resulting image of immunoblotting was analyzed using a ChemiDoc™ touch imaging system (Bio-Rad) and Image Lab 5.2 software (Bio-Rad).

[6] = tested on: C2C12 myotubes treated with dexamethasone; experiment: Protection against dexamethasone-induced differentiation inhibition (myotube length and diameter); assay type: cell-based, mouse; details: 2′-FL high concentration (200 μM), dexamethasone 400 μM 24 hours, vs dexamethasone group (Veh)
Description: Dexamethasone, a synthetic glucocorticoid, is known to decrease the rate of protein synthesis and increase the rate of protein degradation in muscles in vivo or in cultured cells. Accordingly, 1 hour after treatment of C2C12, which had been differentiated, with 2′-FL, C2C12 was treated with dexamethasone at a concentration of 400 μM for 24 hours to determine the muscular atrophy prevention effect of 2′-FL in a cell model. Meanwhile, in order to evaluate the prophylactic effect of the differentiation inhibition caused by treatment with dexamethasone, the length and diameter of myotubes were measured after treatment with dexamethasone.

NRF2 mRNA = experiment: qPCR of mitochondrial biosynthesis gene NRF2; assay type: cell-based, mouse; details: C2C12, 2′-FL at a high concentration, vs control group
Excerpt: as §1, §2, §3

[7] = tested on: C2C12, a mouse muscle (myoblast) cell line; experiment: MTT assay, cytotoxicity of 2′-FL in C2C12; assay type: cell-based; details: C2C12, 2′-FL 100, 200, 400 μM, 24 hours, vs control group
Description: C2C12, a mouse muscle (myoblast) cell line, was cultured at 37° C. in the presence of 5% CO2 using a medium containing 90% DMEM, 10% FBS, and 10 unit/ml penicillin-streptomycin. In order to confirm the cytotoxicity of 2′-FL, the C2C12 cell line was seeded in each well of a 96-well plate at a concentration of 5×10^4 cells/well, cultured for 24 hours, and then treated with 2′-FL at various concentrations (100, 200, 400 μM) for 24 hours. Then, the medium was removed and a growth medium and 0.5 mg/ml of a diluted MTT solution were aliquoted in an amount of […] and incubated in a CO2 incubator. After 2 hours, the MTT reagent was removed, formazin was dissolved in DMSO (dimethyl sulfoxide), and absorbance was measured at 540 nm.

[8] = tested on: differentiated C2C12, mitochondria; experiment: Mitochondrial function: mtDNA expression and mitochondrial density (MitoTracker); assay type: cell-based, mouse; details: differentiated C2C12, 2′-FL 100 and 200 μM, 24 hours, vs control group
Description: Mitochondria have mitochondrial DNA (mtDNA) that is isolated from their own nuclear DNA. […] Such damage to mtDNA causes a decrease in mitochondrial function, leading to a decrease in synthesis of ATP, which is an energy molecule required for cellular a decrease in the ability to regulate activity, and homeostasis in vivo, which eventually causes the onset of various diseases. Accordingly, mtDNA expression and mitochondrial density upon treatment with 2′-FL were measured. […] C2C12 was treated with 2′-FL at different concentrations (100 and 200 μM) for 24 hours, was washed with PBS, added with a medium containing 200 nM of a MitoTracker green probe and cultured for 30 minutes. Then, the portion bound to the MitoTracker green probe was quantified with SpectraMax that absorbs a wavelength of 490 nm and emits a wavelength of 516 nm to measure the density of mitochondria. At this time, the AMPK agonist A-769662 (1 μM) was used as a positive control.

## 2′-fucosyllactose [2′-FL]
PGC-1α mRNA
  expression of PGC-1α mRNA: significantly increased
[1]
  number of cells: significantly increased
MuRF1 gene
  MuRF1 gene expression: significantly decreased
C57BL/6 mice [2]; 2FLH (2′-FL 400 mg/kg oral), 3 weeks
  mouse weight: increased
C57BL/6 mice [2]; 2′-FL 200 or 400 mg/kg oral
  plasma GOT activity: lowered
  plasma GPT activity: lowered
[3]
  muscular atrophy morphological characteristics (decreased muscle bundle size, imbalance in nuclear location), H&E: ameliorated
  weight of extensor digitorum longus: significantly increased
  weight of gastrocnemius muscle: significantly increased
  weight of muscle tissue (unspecified): significantly increased
[4]
  mitochondrial function (mtDNA expression and mitochondrial density): significantly increased
atrogin-1 gene
  atrogin-1 gene expression: significantly decreased
C57BL/6 mice [5]
  grip strength: significantly increased
C2C12 myotubes, MHC
  MHC expression: increased
  length and thickness of myotubes: increased
atrogin-1 protein
  expression of atrogin-1 protein in muscle tissue: significantly decreased
[6]
  diameter of myotubes: significantly increased
  length of myotubes: significantly increased
NRF2 mRNA
  expression of NRF2 mRNA: significantly increased
[7]
  cell viability: no difference in cell viability
[8]
  mitochondrial density measured using the MitoTracker: increased in a concentration-dependent manner
  mtDNA expression: significantly increased in a concentration-dependent manner
